Measured values reported in patent publication US10106510B2, “Substituted isoxazoles for treating cancer” (EPIZYME, INC., priority 2014, dated 2018).

biological target: SMYD3 (Homo sapiens (Human), UniProt Q9H7B4); assay: SMYD3 biochemical assay (SMYD3 enzyme assay on MEKK2 protein substrate, scintillation proximity assay); details: 3H-SAM, SPA, IC50 values are an average of n = 1 to n = 50, read-out: SMYD3 Biochem IC50
Excerpt: S-adenosylmethionine (SAM), S-adenosylhomocysteine (SAH), Tris, Tween20, dimethylsulfoxide (DMSO), bovine skin gelatin (BSG), and Tris(2-carboxyethyl)phosphine hydrochloride solution (TCEP) were purchased from Sigma-Aldrich at the highest level of purity possible. ^3H-SAM was purchase from American Radiolabeled Chemicals with a specific activity of 80 Ci/mmol. 384-well opaque white OptiPlates and SPA beads (Perkin Elmer, catalog # RPNQ0013) were purchased from PerkinElmer.
N-terminally GST-tagged MEKK2 (MAP3K2) protein corresponding to reference sequence AAF63496.3 was purchased from Life Technologies (catalog # PV4010). […] Protein identity was confirmed by MS/MS analysis after proteolytic digestion. The protein sequence used was:
Full-length human SMYD3 isoform 1 (BAB86333) was inserted into a modified pET21b plasmid containing a His6 tag and TEV and SUMO cleavage sites. Because two common variants of SMYD3 exist in the population, site directed mutagenesis was subsequently performed to change amino acid 13 from an asparagine to a lysine, resulting in plasmid pEPZ533.
E. coli (BL21 codonplus RIL strain, Stratagene) were transformed with plasmid pEPZ553 by mixing competent cells and plasmid DNA and incubating on ice for 30minutes followed by heat shock at 42° C. for 1 minute and cooling on ice for 2 minutes. Transformed cells were grown and selected on LB agar with 100 μg/mL ampicillin and 17 μg/mL chloramphenicol at 37° C. overnight. A single clone was used to inoculate 200 mL of LB medium with 100 μg/mL ampicillin and 17 μg/mL chloramphenicol and incubated at 37° C. on an orbital shaker at 180 rpm. Once in log growth, the culture was diluted 1:100 into 2 L of LB medium and grown until OD600 was about 0.3 after which the culture was incubated at 15° C. and 160 rpm. Once OD600 reached about 0.4, IPTG was added to a final concentration of 0.1 mM and the cells were grown overnight at 15° C. and 160 rpm. Cells were harvested by centrifugation at 8000 rpm, for 4 minutes at 4° C. and stored at −80° C. for purification.
The column was washed with Buffer B (Buffer A plus 20 mM imidazole) and His-tagged SMYD3 was eluted with Buffer C (Buffer A plus 300 mM imidazole). The His tag, TEV and SUMO cleavage sites were removed generating native SMYD3 by addition of ULP1 protein at a ratio of 1:200 (ULP1:SMYD3). Imidazole was removed by dialysis overnight in Buffer A. The dialyzed solution was applied to a second Nickel column and the native SMYD3 protein was collected from the column flow-through. The flow-through was dialyzed in Buffer D (25 mM Tris, 5% glycerol, 5 mM β-mercaptoethanol, 50 mM NaCl, pH7.8) and ULP1 was removed using a Q sepharose fast flow column.
General Procedure for SMYD3 Enzyme Assays on MEKK2 Protein Substrate
The assays were all performed in a buffer consisting of 25 mM Tris-Cl pH 8.0, 1 mM TCEP, 0.005% BSG, and 0.005% Tween 20, prepared on the day of use. Compounds in 100% DMSO (1 ul) were spotted into a 384-well white opaque OptiPlate using a Bravo automated liquid handling platform outfitted with a 384-channel head (Agilent Technologies). DMSO (1 ul) was added to Columns 11, 12, 23, 24, rows A-H for the maximum signal control and 1 ul of SAH, a known product and inhibitor of SMYD3, was added to columns 11, 12, 23, 24, rows I-P for the minimum signal control. A cocktail (40 ul) containing the SMYD3 enzyme was added by Multidrop Combi (Thermo-Fisher). The compounds were allowed to incubate with SMYD3 for 30 min at room temperature, then a cocktail (10 ul) containing SAM and MEKK2 was added to initiate the reaction (final volume=51 ul).

Chain of SMYD3 (Q9H7B4 whole entry): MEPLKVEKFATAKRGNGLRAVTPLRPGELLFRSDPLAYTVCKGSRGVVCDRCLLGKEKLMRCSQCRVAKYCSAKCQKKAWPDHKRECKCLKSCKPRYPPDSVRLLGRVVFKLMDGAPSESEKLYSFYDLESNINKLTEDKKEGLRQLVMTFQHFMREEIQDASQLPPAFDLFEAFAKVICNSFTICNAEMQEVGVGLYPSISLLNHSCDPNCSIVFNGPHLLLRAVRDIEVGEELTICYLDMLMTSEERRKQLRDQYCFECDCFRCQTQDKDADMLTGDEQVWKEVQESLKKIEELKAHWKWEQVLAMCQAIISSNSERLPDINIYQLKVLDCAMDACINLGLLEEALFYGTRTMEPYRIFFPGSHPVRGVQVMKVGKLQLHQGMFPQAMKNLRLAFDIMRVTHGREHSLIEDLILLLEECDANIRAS

Structure (SMILES)	IC50 [nM]
CCc1cc(C(=O)N[C@H]2CC[C@H](NC(=O)C[C@H](C)N)C[C@H]2CC)no1 (mixture of isomers) [compound 7, Mixture of N-((1S,2R,4S)-4-((S)-3-aminobutanamido)-2-ethylcyclohexyl)-5-ethylisoxazole-3-carboxamide and N-((1R,2S,4R)-4-((S)-3-aminobutanamido)-2-ethylcyclohexyl)-5-ethylisoxazole-3-carboxamide; (1S,2R,4S) isomer depicted]	170
NCCCS(=O)(=O)N[C@H]1CC[C@H](NC(=O)c2cc(C3CC3)on2)CC1 [Cpd. No. 34, N-((1r,4r)-4-((3-amino-propyl)sulfonamido)cyclohexyl)-5-cyclopropylisoxazole-3-carboxamide]	1340
CCc1cc(C(=O)N[C@H]2CC[C@H](N)C[C@H]2CC)no1 [compound 2, N-((1S,2R,4S)-4-amino-2-ethylcyclohexyl)-5-ethylisoxazole-3-carboxamide]	2440
NCCC(=O)N(CCO)[C@H]1CC[C@H](NC(=O)c2cc(C3CC3)on2)CC1 [compound 9, N-((1r,4r)-4-(3-amino-N-(2-hydroxyethyl)propanamido)cyclohexyl)-5-cyclo-propylisoxazole-3-carboxamide]	2280
N[C@H]1CC[C@@H](C(=O)N[C@H]2CC[C@H](NC(=O)c3cc(C4CC4)on3)CC2)CC1 [compound 13, N-((1R,4r)-4-((1s,4S)-4-aminocyclohexane-1-carboxamido)cyclohexyl)-5-cyclopropylisoxazole-3-carboxamide]	352
N[C@H]1CC[C@H](C(=O)N[C@H]2CC[C@H](NC(=O)c3cc(C4CC4)on3)CC2)CC1 [compound 16, N-((1R,4r)-4-((1r,4R)-4-aminocyclohexane-1-carboxamido)cyclohexyl)-5-cyclopropylisoxazole-3-carboxamide]	606
N[C@@H]1CC[C@H](C(=O)N[C@H]2CC[C@H](NC(=O)c3cc(C4CC4)on3)CC2)C1 [compound 21, N-((1S,4r)-4-((1S,3R)-3-aminocyclopentane-1-carboxamido)cyclohexyl)-5-cyclopropylisoxazole-3-carboxamide]	511
NCCS(=O)(=O)N[C@H]1CC[C@H](NC(=O)c2cc(C3CC3)on2)CC1 [compound 29, N-((1r,4r)-4-((2-aminoethyl)sulfonamido)cyclohexyl)-5-cyclopropylisoxazole-3-carboxamide]	2900
NCCC(=O)N(CCN)[C@H]1CC[C@H](NC(=O)c2cc(C3CC3)on2)CC1 [compound 35, N-((1r,4r)-4-(3-amino-N-(2-aminoethyl)propanamido)cyclohexyl)-5-cyclopropylisoxazole-3-carboxamide]	883
NCCCN(C(=O)CCO)[C@H]1CC[C@H](NC(=O)c2cc(C3CC3)on2)CC1 [compound 36, N-((1r,4r)-4-(N-(3-aminopropyl)-3-hydroxypropanamido)cyclohexyl)-5-cyclopropylisoxazole-3-carboxamide]	7030
NCCC(=O)N(CCCO)[C@H]1CC[C@H](NC(=O)c2cc(C3CC3)on2)CC1 [compound 38, N-((1r,4r)-4-(3-amino-N-(3-hydroxypropyl)propanamido)cyclohexyl)-5-cyclopropylisoxazole-3-carboxamide]	1200

Further lines, results first:

IC50 [nM]	Structure (SMILES)
545	NC1CCC1C(=O)N[C@H]1CC[C@H](NC(=O)c2cc(C3CC3)on2)CC1 (stereo partly shown) [Cpd. No. 3, N-((1r,4r)-4-(2-amino-cyclobutane-1-carboxamido)cyclo-hexyl)-5-cyclopropylisoxazole-3-carboxamide]
466	CC(N)CC(=O)N[C@H]1CC[C@H](NC(=O)c2cc(C3CC3)on2)CC1 (stereo partly shown) [compound 1, N-((1r,4r)-4-(3-aminobutanamido)cyclohexyl)-5-cyclopropylisoxazole-3-carboxamide]
475	NCCC(=O)N[C@H]1CC[C@H](NC(=O)c2cc(C3CC3)on2)CC1 [compound 4, N-((1r,4r)-4-(3-aminopropanamido)cyclohexyl)-5-cyclopropylisoxazole-3-carboxamide]
654	CC(CN)C(=O)N[C@H]1CC[C@H](NC(=O)c2cc(C3CC3)on2)CC1 (stereo partly shown) [compound 8, N-((1r,4r)-4-(3-amino-2-methylpropanamido)cyclohexyl)-5-cyclopropylisoxazole-3-carboxamide]
7720	CN1CCN(CCC(=O)N[C@H]2CC[C@H](NC(=O)c3cc(C4CC4)on3)CC2)CC1 [compound 10, 5-cyclopropyl-N-((1r,4r)-4-(3-(4-methylpiperazin-1-yl)propanamido)cyclohexyl)isoxazole-3-carboxamide]
867	CNCCC(=O)N[C@H]1CC[C@H](NC(=O)c2cc(C3CC3)on2)CC1 [compound 12, 5-cyclopropyl-N-((1r,4r)-4-(3-(methylamino)propanamido)cyclohexyl) isoxazole-3-carboxamide]
1180	N[C@H]1C[C@@H](C(=O)N[C@H]2CC[C@H](NC(=O)c3cc(C4CC4)on3)CC2)C1 [compound 14, N-((1R,4r)-4-((1s,3S)-3-aminocyclobutane-1-carboxamido)cyclohexyl)-5-cyclopropylisoxazole-3-carboxamide]
20400	O=C(CCN1CCOCC1)N[C@H]1CC[C@H](NC(=O)c2cc(C3CC3)on2)CC1 [compound 15, 5-cyclopropyl-N-((1r,4r)-4-(3-morpholino-propanamido)cyclohexyl) isoxazole-3-carboxamide]
1150	O=C(CCN1CCNCC1)N[C@H]1CC[C@H](NC(=O)c2cc(C3CC3)on2)CC1 [compound 17, 5-cyclopropyl-N-((1r,4r)-4-(3-(piperazin-1-yl)propanamido)cyclohexyl)isoxazole-3-carboxamide]
671	O=C(CCNCc1ccccc1)N[C@H]1CC[C@H](NC(=O)c2cc(C3CC3)on2)CC1 [compound 18, N-((1r,4r)-4-(3-(benzylamino)propanamido)cyclohexyl)-5-cyclopropylisoxazole-3-carboxamide]
919	CC(C)CNCCC(=O)N[C@H]1CC[C@H](NC(=O)c2cc(C3CC3)on2)CC1 [compound 19, 5-cyclopropyl-N-((1r,4r)-4-(3-(isobutylamino)propanamido)cyclohexyl)isoxazole-3-carboxamide]
269	N[C@H]1C[C@H](C(=O)N[C@H]2CC[C@H](NC(=O)c3cc(C4CC4)on3)CC2)C1 [compound 22, N-((1R,4r)-4-((1r,3R)-3-aminocyclobutane-1-carboxamido)cyclohexyl)-5-cyclopropylisoxazole-3-carboxamide]
342	NCCCN[C@H]1CC[C@H](NC(=O)c2cc(C3CC3)on2)CC1 [compound 23, N-((1r,4r)-4-((3-aminopropyl)amino)cyclohexyl)-5-cyclopropylisoxazole-3-carboxamide]
8230	CC(C)CCN[C@H]1CC[C@H](NC(=O)c2cc(C3CC3)on2)CC1 [compound 25, 5-cyclopropyl-N-((1r,4r)-4-(isopentylamino)cyclohexyl)isoxazole-3-carboxamide]
567	NCC(O)C(=O)N[C@H]1CC[C@H](NC(=O)c2cc(C3CC3)on2)CC1 (stereo partly shown) [compound 27, N-((1r,4r)-4-(3-amino-2-hydroxypropanamido)cyclohexyl)-5-cyclopropylisoxazole-3-carboxamide]
853	NCCN[C@H]1CC[C@H](NC(=O)c2cc(C3CC3)on2)CC1 [compound 28, N-((1r,4r)-4-((2-aminoethyl)amino)cyclohexyl)-5-cyclopropylisoxazole-3-carboxamide]
6360	CCS(=O)(=O)N[C@H]1CC[C@H](NC(=O)c2cc(C3CC3)on2)CC1 [compound 37, 5-cyclopropyl-N-((1r,4r)-4-(ethylsulfonamido)cyclohexyl)isoxazole-3-carboxamide]
